Assay results reported in ChEMBL document CHEMBL4229531, “Synthesis and evaluation of 1,2,3,4-tetrahydro-1-acridone analogues as potential dual inhibitors for amyloid-beta and tau aggregation” (Bioorg Med Chem, 2018).
Calls of active or inactive are those of the source. The rule behind the calls is not given here.

Tests used:
[1] = target: T1, Amyloid-beta precursor protein (Homo sapiens, UniProt P05067); experiment: Inhibition of self-induced amyloid beta (1 to 42) (unknown origin) aggregation at 20 uM after 72 hrs by thioflavin T assay relative to control
T1 sequence (P05067 whole entry): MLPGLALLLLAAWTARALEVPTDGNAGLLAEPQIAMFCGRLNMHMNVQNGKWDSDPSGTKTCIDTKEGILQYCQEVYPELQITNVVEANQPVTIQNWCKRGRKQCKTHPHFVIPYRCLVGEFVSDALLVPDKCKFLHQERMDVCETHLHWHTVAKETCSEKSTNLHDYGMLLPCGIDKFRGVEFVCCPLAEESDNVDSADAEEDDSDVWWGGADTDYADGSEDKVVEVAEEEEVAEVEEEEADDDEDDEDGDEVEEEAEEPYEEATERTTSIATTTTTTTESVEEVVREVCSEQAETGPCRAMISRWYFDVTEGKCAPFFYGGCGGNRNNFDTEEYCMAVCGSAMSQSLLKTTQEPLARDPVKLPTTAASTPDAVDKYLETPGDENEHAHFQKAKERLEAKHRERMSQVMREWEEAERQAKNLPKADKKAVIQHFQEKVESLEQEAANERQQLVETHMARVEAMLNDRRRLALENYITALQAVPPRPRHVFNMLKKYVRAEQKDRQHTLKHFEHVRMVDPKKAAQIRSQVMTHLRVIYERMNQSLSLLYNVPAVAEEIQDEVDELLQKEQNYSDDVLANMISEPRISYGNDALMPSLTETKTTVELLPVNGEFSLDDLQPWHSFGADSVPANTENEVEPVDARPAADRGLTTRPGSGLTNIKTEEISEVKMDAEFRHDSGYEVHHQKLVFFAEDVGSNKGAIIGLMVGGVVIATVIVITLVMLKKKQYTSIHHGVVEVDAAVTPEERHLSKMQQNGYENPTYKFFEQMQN

[2] = Permeability of the compound at 100 ug/ml after 10 hrs by artificial membrane permeability assay; type: ADME; conditions: PAMPA; read-out: permeability
[3] = organism: Homo sapiens; experiment: Inhibition of recombinant full length tau 0N4R (unknown origin) aggregation expressed in Escherichia coli at 20 uM after 72 hrs by thioflavin S assay relative to control
[4] = Binding affinity to recombinant full length tau 0N4R (unknown origin) expressed in Escherichia coli by surface plasmon resonance assay; design: species or system Homo sapiens
[5] = target: T1, Amyloid-beta precursor protein; experiment: Inhibition of self-induced amyloid beta (1 to 42) (unknown origin) fibril formation at 20 uM after 24 hrs by uranyl acetate staining-based transmission electron microscopic method
[6] = organism: Homo sapiens; experiment: Inhibition of fibril formation of recombinant full length tau 0N4R (unknown origin) expressed in Escherichia coli at 20 uM after 24 hrs by uranyl acetate staining-based transmission electron microscopic method
[7] = target: T1, Amyloid-beta precursor protein; experiment: Inhibition of amyloid beta (1 to 42) (unknown origin) beta-sheet formation at 20 uM after 24 hrs by CD spectroscopic method
[8] = target: T1, Amyloid-beta precursor protein; experiment: Binding affinity to amyloid beta (1 to 42) (unknown origin) by surface plasmon resonance assay
[9] = tested on: Microtubule-associated protein tau (Mus musculus), P10637 [P243L]; experiment: Inhibition of congo red-induced EGFP-tagged Tau P301L mutant (unknown origin) aggregation expressed in HEK293T cells at 1 uM pretreated for 30 mins followed by congo red addition and measured after 24 hrs by DAPI staining-based fluorescence assay; type: cell-based; conditions: Homo sapiens
Chain of Microtubule-associated protein tau (Mus musculus), P10637 [P243L] (P10637 whole entry P243L): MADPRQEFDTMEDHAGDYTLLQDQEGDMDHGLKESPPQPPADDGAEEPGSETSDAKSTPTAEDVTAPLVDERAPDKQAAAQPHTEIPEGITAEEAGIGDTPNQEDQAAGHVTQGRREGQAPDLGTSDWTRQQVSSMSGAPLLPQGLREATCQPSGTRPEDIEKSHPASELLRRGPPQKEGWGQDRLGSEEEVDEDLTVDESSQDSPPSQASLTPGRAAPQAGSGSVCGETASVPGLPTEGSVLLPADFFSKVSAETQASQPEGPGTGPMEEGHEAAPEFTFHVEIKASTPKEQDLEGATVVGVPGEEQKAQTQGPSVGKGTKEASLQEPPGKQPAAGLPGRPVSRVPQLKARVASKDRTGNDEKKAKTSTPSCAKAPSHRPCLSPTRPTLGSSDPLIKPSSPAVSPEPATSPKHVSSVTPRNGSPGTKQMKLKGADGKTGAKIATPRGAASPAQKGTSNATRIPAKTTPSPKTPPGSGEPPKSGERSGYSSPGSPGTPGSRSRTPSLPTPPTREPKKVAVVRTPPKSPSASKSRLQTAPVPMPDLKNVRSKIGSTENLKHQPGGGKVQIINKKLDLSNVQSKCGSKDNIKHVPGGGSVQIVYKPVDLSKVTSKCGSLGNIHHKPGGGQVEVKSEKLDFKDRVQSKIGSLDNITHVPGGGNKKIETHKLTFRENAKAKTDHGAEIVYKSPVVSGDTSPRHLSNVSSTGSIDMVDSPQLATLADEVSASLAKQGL

[10] = tested on: HEK-293T; experiment: Effect on proliferation of HEK293T cells transfected with EGFP-tagged Tau P301L mutant at 1 uM; type: cell-based; conditions: human
[11] = tested on: Microtubule-associated protein tau (Mus musculus), P10637 [P243L]; experiment: Inhibition of congo red-induced EGFP-tagged Tau P301L mutant (unknown origin) aggregation expressed in HEK293T cells at 0.5 uM pretreated for 30 mins followed by congo red addition and measured after 24 hrs by DAPI staining-based fluorescence assay; type: cell-based; conditions: Homo sapiens

Compound | inhibition [1] | Papp at 10 h, 100 ug/ml [2] | inhibition [3] | also measured
Nc1c2c(nc3ccccc13)CC/C(=C/c1cccc3ccccc13)C2=O | -6.8% | 49.5 ×10⁻⁶ cm/s |  | 
Nc1c2c(nc3ccccc13)CC/C(=C/c1cccc(F)c1)C2=O |  | 20.3 ×10⁻⁶ cm/s |  | 
Nc1c2c(nc3ccccc13)CC/C(=C\c1ccco1)C2=O | 15.2% | 16.2 ×10⁻⁶ cm/s | 30.7% | 
CN(C)c1ccc2nc3ccc(N(C)C)cc3[s+]c2c1 [METHYLENE BLUE ANHYDROUS] |  |  |  | Kd [4]: 28.2 µM
Nc1c2c(nc3ccccc13)CC/C(=C\c1cccc3ccccc13)C2=O | 7.8% | 0.5 ×10⁻⁶ cm/s | -6.7% | 
Nc1c2c(nc3ccccc13)CC/C(=C\c1cccc([N+](=O)[O-])c1)C2=O | 8.2% | 3.3 ×10⁻⁶ cm/s |  | 
O=C1/C(=C/c2ccc([N+](=O)[O-])cc2)CCc2nc3ccccc3cc21 | 2.7% | 3.2 ×10⁻⁶ cm/s | 6.3% | 
Nc1c2c(nc3ccccc13)CC/C(=C\c1cccs1)C2=O | 14.5% | 7.2 ×10⁻⁶ cm/s | 11.9% | 
C[n+]1c2c(c(N)c3ccccc31)C(=O)/C(=C/c1cccc(Cl)c1)CC2.[I-] | 91.9% | 4.1 ×10⁻⁶ cm/s | 98.3% | 
Nc1c2c(nc3ccccc13)CC/C(=C\c1cccc(F)c1)C2=O | 20.3% | 5.3 ×10⁻⁶ cm/s | 4.9% | 
C[n+]1c2c(c(N)c3ccccc31)C(=O)/C(=C/c1cccc3ccccc13)CC2.[I-] | 86.7% | 4.6 ×10⁻⁶ cm/s | 102% | inhibition [5]: Active; inhibition [6]: Active; inhibition [7]: Active; Kd [8]: 16 µM; Kd [4]: 33.7 µM; inhibition [9]: 62.6%; Activity [10]: Non-Toxic
Nc1c2c(nc3ccccc13)CC/C(=C/c1cccc(Cl)c1)C2=O |  | 15.6 ×10⁻⁶ cm/s |  | 
Nc1c2c(nc3ccccc13)CC/C(=C\C=C\c1ccccc1)C2=O | 2% | 1.3 ×10⁻⁶ cm/s | -3.8% | 
Nc1c2c(nc3ccccc13)CC/C(=C\c1ccccc1F)C2=O | 37% | 6.9 ×10⁻⁶ cm/s | 25.3% | 
Oc1ccc(/C=C/c2cc(O)cc(O)c2)cc1 |  |  |  | inhibition [5]: Active
O=C1/C(=C/c2ccccc2F)CCc2nc3ccccc3cc21 | -0.5% | 8.3 ×10⁻⁶ cm/s | 2.9% | 
C[n+]1c2c(c(N)c3ccccc31)C(=O)/C(=C\c1cccc(Cl)c1)CC2.[I-] | 105% | 4.6 ×10⁻⁶ cm/s | 15.4% | 
COc1cccc(/C=C2\CCc3nc4ccccc4c(N)c3C2=O)c1 | 7.9% | 7.5 ×10⁻⁶ cm/s | 44.3% | 
Nc1c2c(nc3ccccc13)CC/C(=C\c1ccc([N+](=O)[O-])cc1)C2=O | 2.4% | 11.2 ×10⁻⁶ cm/s | -3.3% | 
C[n+]1c2c(c(N)c3ccccc31)C(=O)/C(=C\c1cccc(F)c1)CC2.[I-] | 89.1% | 2.7 ×10⁻⁶ cm/s | 23.3% | 
Nc1c2c(nc3ccccc13)CC/C(=C/c1cccs1)C2=O |  | 10.8 ×10⁻⁶ cm/s | 5.9% | 
Nc1c2c(nc3ccccc13)CC/C(=C/c1cccc([N+](=O)[O-])c1)C2=O |  | 9.1 ×10⁻⁶ cm/s |  | 

Compound | inhibition [1] | Papp at 10 h, 100 ug/ml [2] | inhibition [3] | also measured
C[n+]1c2c(c(N)c3ccccc31)C(=O)/C(=C/c1cccc([N+](=O)[O-])c1)CC2.[I-] | 86.4% | 2.1 ×10⁻⁶ cm/s | 98.2% | 
C[n+]1c2c(c(N)c3ccccc31)C(=O)/C(=C/c1ccccc1)CC2.[I-] | 84.7% | 2.4 ×10⁻⁶ cm/s | 71.2% | 
C[n+]1c2c(c(N)c3ccccc31)C(=O)/C(=C/c1cccc(F)c1)CC2.[I-] | 98.7% | 3.6 ×10⁻⁶ cm/s | 86.3% | 
Nc1c2c(nc3ccccc13)CC/C(=C/c1ccccc1)C2=O |  | 13.3 ×10⁻⁶ cm/s |  | 
Nc1c2c(nc3ccccc13)CC/C(=C\c1cccc(Cl)c1)C2=O | 34.2% | 1.1 ×10⁻⁶ cm/s | -3.1% | 
C[n+]1c2c(c(N)c3ccccc31)C(=O)/C(=C\c1ccccc1)CC2.[I-] | 97.6% | 1.8 ×10⁻⁶ cm/s | 7.2% | 
Nc1c2c(nc3ccccc13)CC/C(=C\c1ccccc1Cl)C2=O | 14.1% | 7.4 ×10⁻⁶ cm/s | -3.6% | 
O=C1/C(=C/c2cccc(Cl)c2)CCc2nc3ccccc3cc21 | 46.2% | 2 ×10⁻⁶ cm/s | 4.2% | 
Nc1c2c(nc3ccccc13)CCC(Cc1ccccc1)C2=O (stereo not given) | -4% | 13.9 ×10⁻⁶ cm/s | 10% | 
C[n+]1c2c(c(N)c3ccccc31)C(=O)/C(=C\c1cccc3ccccc13)CC2.[I-] | 91.2% | 3.5 ×10⁻⁶ cm/s | 79.2% | 
C[n+]1c2c(c(N)c3ccccc31)C(=O)/C(=C\c1cccs1)CC2.[I-] | 94.9% | 1.7 ×10⁻⁶ cm/s | 31.6% | 
O=C1/C(=C/c2ccccc2Cl)CCc2nc3ccccc3cc21 | 3.5% | 7.1 ×10⁻⁶ cm/s | 14.9% | 
C[n+]1c2c(c(N)c3ccccc31)C(=O)/C(=C/c1cccs1)CC2.[I-] | 99.5% | 1.7 ×10⁻⁶ cm/s | 95.3% | 
COc1ccc(/C=C2\CCc3nc4ccccc4c(N)c3C2=O)cc1 | -2% | 10.5 ×10⁻⁶ cm/s | 43.4% | 
Cc1c2c(nc3ccccc13)CC/C(=C\c1ccccc1)C2=O | 16.6% | 3.1 ×10⁻⁶ cm/s | 15.7% | 
O=C1/C(=C/c2cccc(F)c2)CCc2nc3ccccc3cc21 | 7.2% | 17.2 ×10⁻⁶ cm/s | 14.7% | 
CN(C)c1ccc2c(c1)Sc1cc(N(C)C)ccc1N2 |  |  |  | inhibition [11]: 74.4%
O=C1/C(=C/c2ccccc2)CCc2nc3ccccc3cc21 | -3.2% | 8.6 ×10⁻⁶ cm/s | 20.5% | 
Nc1c2c(nc3ccccc13)CC/C(=C\c1ccccc1)C2=O | 7.7% | 26.4 ×10⁻⁶ cm/s | 18.7% | 
C[n+]1c2c(c(N)c3ccccc31)C(=O)/C(=C\c1cccc([N+](=O)[O-])c1)CC2.[I-] | 94.4% | 1.8 ×10⁻⁶ cm/s | 32% | 
CN(C)c1ccc2nc3ccc(=[N+](C)C)cc-3sc2c1 |  |  | 80.1% | 
Nc1c2c(nc3ccccc13)CC/C(=C\c1ccc(Cl)cc1)C2=O | 24.8% | 30.3 ×10⁻⁶ cm/s | 7.1% | 
